Columns and labels:
[1] = test system: patients with resistant hypertension; assay: Trough/peak sitting blood pressure by standard sphygmomanometry, randomized placebo-controlled dose-titration study; type: in vivo, human; conditions: for Percent of patients achieving SBP goal, Responders, n (%): n = 76
Experimental: In this randomized, double-blind, placebo-controlled, dose-titration study, 115 patients with resistant hypertension as defined by JNC 7 guidelines were randomized 2:1 to receive escalating doses of darusentan (10, 50, 100, 150 and 300 mg) or placebo once daily for 10 weeks. Darusentan dose was increased every 2 weeks.
Patients (35 to 85 years of age) with resistant hypertension as defined by the JNC 7 guidelines and who were treated with and adhered to full doses of JNC 7 recommended antihypertensives, including a diuretic and two or more antihypertensive medications from different drug classes, defined as (a) ACE inhibitors and angiotensin II receptor blockers, (b) beta-adrenergic receptor blockers, and (c) calcium channel blockers, were eligible to participate in the study. Patients also were required to have an estimated glomerular filtration rate (GFR) ≧30 mL/min/1.73 m^2 during the screening period. Women of childbearing potential were required to have a negative serum pregnancy test at the screening visit and a negative urine pregnancy test at baseline, and they must have agreed to use a reliable double-barrier method of contraception throughout the study and for at least 4 weeks after the last study visit. Patients with an average sitting SBP ≧180 mmHg, […], hemoglobin A1c >10%, hemoglobin concentration <10 g/dL, hematocrit <30%, serum thyroid stimulating hormone concentration >1.5× the upper limit of normal (ULN), or serum alanine aminotransferase (ALT) or aspartate aminotransferase (AST)>2×ULN during the screening period were excluded from the study. […] All patients provided written informed consent.
(§1) In this randomized, double-blind, placebo-controlled, dose-titration study, patients were randomized 2:1 to receive escalating doses of darusentan or placebo once daily in the morning for 10 weeks after completing a 2-week placebo run-in period (FIG. 1). Darusentan was initiated at a dose of 10 mg/day and escalated every 2 weeks at doses of 50, 100 and 150 mg/day until reaching a maximum of 300 mg/day. […] Patients were withdrawn from the study if a subsequent dose reduction was required. After completion of the 10-week treatment period, patients were withdrawn from study medication over a maximum of 2 weeks. This study was approved by an Institutional Review Board/Independent Ethics Committee and conducted in accordance with the principles of Good Clinical Practices and the revised Declaration of Helsinki.
(§2) Co-primary efficacy endpoints were the changes from baseline through weeks 8 and 10 (i.e., doses of 150 and 300 mg) in trough sitting SBP. Blood pressure was measured at every study visit (baseline and weeks 2, 4, 6, 8 and 10) using standard sphygmomanometry. Secondary variables included 24-hour SBP as measured by ambulatory blood pressure monitoring (ABPM), percentage of patients who achieved SBP goal, trough sitting DBP, and urinary albumin to creatinine ratio. Ambulatory blood pressure monitoring was recorded once before randomization and repeated during the 24 hours immediately preceding the week 10 study visit. Urine samples for determination of albumin to creatinine ratio were collected at screening, baseline and week 10.
A nonlinear mixed effect model was used for the analysis of change in blood pressure, with comorbidity status as a covariate. This model used all observed blood pressure measurements with no imputation for missing values. Linear contrast statements were used to test the slope through a given time point to test the effect of the dose administered on that week. Estimates of treatment effect were obtained via least square means. Response rates were compared with logistic regression models at each blood pressure measurement with comorbidity status as a covariate; missing values were imputed with last observation carried forward for these models. Safety summaries include all patients who received ≧1 dose of blinded study medication. […]

[2] = test system: patients with resistant hypertension; assay: 24-hour ambulatory blood pressure monitoring (ABPM) at week 10; type: in vivo, human
Experimental: as §1, §2
A nonlinear mixed effect model was used for the analysis of change in blood pressure, with comorbidity status as a covariate. This model used all observed blood pressure measurements with no imputation for missing values. Linear contrast statements were used to test the slope through a given time point to test the effect of the dose administered on that week. Estimates of treatment effect were obtained via least square means. […]

[3] = test system: patients with resistant hypertension; assay: Urinary albumin to creatinine ratio (renal function); type: in vivo, human; conditions: for Albumin to creatinine ratio, % Change from baseline, Mean: week 10
Experimental: as §2

[4] = test system: patients with resistant hypertension; assay: Safety and tolerability assessments in the clinical study; type: in vivo, human; conditions: for Treatment-emergent adverse events, Patients, %: n = 76
Experimental: as §1
Physical examinations, vital sign measurements, clinical chemistry and hematologic laboratory tests, and electrocardiography were performed at the screening visit and periodically throughout the study. Blood samples were obtained at baseline and at weeks 4 and 10 during study drug treatment to monitor liver function. Additional blood samples were drawn from male patients at baseline and week 10 to assess follicle stimulating hormone, inhibin B, luteinizing hormone and testosterone levels. Male fertility was assessed by analysis of semen samples obtained within 2 weeks before baseline and within 2 weeks before week 10. Adverse events were monitored throughout the study.
A nonlinear mixed effect model was used for the analysis of change in blood pressure, with comorbidity status as a covariate. This model used all observed blood pressure measurements with no imputation for missing values. Linear contrast statements were used to test the slope through a given time point to test the effect of the dose administered on that week. Estimates of treatment effect were obtained via least square means. Response rates were compared with logistic regression models at each blood pressure measurement with comorbidity status as a covariate; missing values were imputed with last observation carried forward for these models. Safety summaries include all patients who received ≧1 dose of blinded study medication.

[5] = test system: patients with moderate hypertension; conditions: 10 to 100 mg/day, no other antihypertensive drugs; cited from earlier work

COc1cc(OC)nc(O[C@H](C(=O)O)C(OC)(c2ccccc2)c2ccccc2)n1 [Darusentan, (+)-(S)-2-[(4,6-dimethoxy-2-pyrimidinyl)oxy]-3-methoxy-3,3-diphenylpropionic acid]
improvements in trough sitting SBP and DBP, dose relation ([1]; 10 to 300 mg once daily, titrated every 2 weeks): dose dependent | Percent of patients achieving SBP goal, Responders, n (%) ([1]; Week 2 (10 mg)): 23 (30.3) n (%) | Percent of patients achieving SBP goal, Responders, n (%) ([1]; Week 4 (50 mg)): 36 (47.4) n (%) | Percent of patients achieving SBP goal, Responders, n (%) ([1]; Week 6 (100 mg)): 34 (44.7) n (%) | Percent of patients achieving SBP goal, Responders, n (%) ([1]; Week 8 (150 mg)): 32 (42.1) n (%) | Percent of patients achieving SBP goal, Responders, n (%) ([1]; Week 10 (300 mg)): 37 (48.7) n (%) | patients achieving SBP goal (JNC 7) ([1]; end of treatment (week 10), placebo 28%): 49% | placebo-adjusted reduction in mean 24-hour systolic ABP ([2]; 300 mg): 9.2±2.2 mmHg | decrease in day-time SBP (ABP) ([2]; placebo 2.2±2.4 mmHg): 10.9±1.4 mmHg | decrease in night-time SBP (ABP) ([2]; placebo 3.8±2.7 mmHg): 11.9±1.6 mmHg | Geometric mean albumin to creatinine ratio, Week 10 ([3]; All observed patients, n 65, baseline 12.6): 9.4 mg/g | Albumin to creatinine ratio, % Change from baseline, Mean ([3]; All observed patients): −25.3% | Geometric mean albumin to creatinine ratio, Week 10 ([3]; Baseline ratio >30 mg/g, n 12, baseline 145.4): 73.6 mg/g | Albumin to creatinine ratio, % Change from baseline, Mean ([3]; Baseline ratio >30 mg/g): −49.4% | Geometric mean albumin to creatinine ratio, Week 10 ([3]; Baseline ratio ≦30 mg/g, n 53, baseline 7.2): 5.9 mg/g | Albumin to creatinine ratio, % Change from baseline, Mean ([3]; Baseline ratio ≦30 mg/g): −18.4% | patients with elevations in ALT or AST >2×ULN ([4]; 10-week treatment): no | Treatment-emergent adverse events, Patients, % ([4]; Arthralgia): (3) % | Treatment-emergent adverse events, Patients, % ([4]; Diarrhea): (1) % | Treatment-emergent adverse events, Patients, % ([4]; Dizziness): (7) % | Treatment-emergent adverse events, Patients, % ([4]; Gastroenteritis): (5) % | Treatment-emergent adverse events, Patients, % ([4]; Nasopharyngitis): (7) % | Treatment-emergent adverse events, Patients, % ([4]; Sinusitis): (8) % | Treatment-emergent adverse events, Patients, % ([4]; Upper respiratory tract infection): (5) % | patients with decrease in hematocrit reported as adverse event ([4]; all events mild): 2 patients | patients with decrease in hemoglobin reported as adverse event ([4]; all events mild): 2 patients | cases of severe peripheral edema ([4]; darusentan group): one case | serious adverse events considered related to study medication ([4]; darusentan group): None and no drug-related serious adverse events | effect on SBP and DBP by comparison with placebo [5]: significantly reduce
